The results in this text go back to PMC10950880, “The RsfSR two-component system regulates SigF function by monitoring the state of the respiratory electron transport chain in Mycobacterium smegmatis” (The Journal of Biological Chemistry, 2024).

Assay [1] deals with T1, RsfSTr (truncated RsfS, MSMEG_6130) (Mycolicibacterium smegmatis, UniProt A0R5B3).
T1 construct: kinase domain only (amino acids 190-525), lacks CHASE3 and N-terminal region; C-terminal His6 kept; from E. coli BL21; partially purified
T1 sequence (A0R5B3 entry or part of it): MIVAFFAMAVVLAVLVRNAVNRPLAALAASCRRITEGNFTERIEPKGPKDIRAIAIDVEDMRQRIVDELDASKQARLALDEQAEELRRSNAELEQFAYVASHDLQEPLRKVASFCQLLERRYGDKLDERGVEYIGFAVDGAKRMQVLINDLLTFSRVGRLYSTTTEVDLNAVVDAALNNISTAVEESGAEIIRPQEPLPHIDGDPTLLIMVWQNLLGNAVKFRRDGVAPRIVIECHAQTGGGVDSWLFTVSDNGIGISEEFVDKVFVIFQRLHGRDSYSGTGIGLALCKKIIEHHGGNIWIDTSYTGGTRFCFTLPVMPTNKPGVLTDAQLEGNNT
Briefly: autophosphorylation and phosphotransfer to RsfR, Phos-tag SDS-PAGE. The class given is biochemical. The settings on record: 1 mM ATP, 300 mM Tris-HCl pH 8, 50 mM KCl, 10 mM MgCl2, 30 C; covalent.

The next assay deals with T2, RsfR (MSMEG_6131) (Mycolicibacterium smegmatis, UniProt A0R5B4).
T2 construct: C-terminal His6 kept; from E. coli BL21 (DE3), pT7-7rsfR
T2 sequence (A0R5B4 1-402): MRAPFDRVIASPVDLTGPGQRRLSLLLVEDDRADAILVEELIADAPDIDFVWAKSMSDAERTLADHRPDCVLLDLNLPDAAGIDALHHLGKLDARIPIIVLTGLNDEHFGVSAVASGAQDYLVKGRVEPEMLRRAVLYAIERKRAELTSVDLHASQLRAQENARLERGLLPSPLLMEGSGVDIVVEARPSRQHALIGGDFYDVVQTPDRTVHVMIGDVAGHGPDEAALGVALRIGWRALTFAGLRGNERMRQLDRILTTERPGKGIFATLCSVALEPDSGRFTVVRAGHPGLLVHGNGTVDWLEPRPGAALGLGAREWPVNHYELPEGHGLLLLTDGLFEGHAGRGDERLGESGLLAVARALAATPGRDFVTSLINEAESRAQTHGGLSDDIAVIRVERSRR
As to the kind of experiment: phosphorylation of RsfR by acetyl phosphate (Phos-tag SDS-PAGE); RsfR then tested on P-RsfB. The settings on record: 40 mM acetyl phosphate, 300 mM Tris-HCl pH 8.0, 50 mM KCl, 10 mM MgCl2, no ATP, 30 C; phosphodonor, covalent. The class given is biochemical.

Take `Nc1ncnc2c1ncn2[C@@H]1O[C@H](COP(=O)(O)OP(=O)(O)OP(=O)(O)O)[C@@H](O)[C@H]1O` [ATP]: the “autophosphorylation and phosphotransfer to RsfR, Phos-tag SDS-PAGE” value in assay [1] is listed as “RsfSTr was autophosphorylated in the reaction mixture”.

As to `CC(=O)OP(=O)(O)O` [acetyl phosphate], the “RsfR phosphorylation by acetyl phosphate” value at RsfR (MSMEG_6131) is on record as “Acetyl phosphate phosphorylated purified RsfR less efficiently than RsfSTr”.
